Reference: ChEMBL document CHEMBL5325405, “Rationally designed donepezil-based hydroxamates modulate Sig-1R and HDAC isoforms to exert anti-glioblastoma effects” (Eur J Med Chem, 2023)
The source made the active and inactive calls. The calls are words filed in the database; no cut-off is given here.

Legend:
Histone deacetylase 2 = Histone deacetylase 2 (Homo sapiens, UniProt Q92769); test: Inhibition of human HDAC2
U-87 MG [1] = test: Cytotoxicity against human U-87 MG cells assessed as reduction in cell growth at 10 uM measured after 3 days by MTT assay; type: functional, U-87MG ATCC; set-up: scale not given: the % may be the effect or the level left; details: time 3 day
Histone deacetylase 1 = Histone deacetylase 1 (Homo sapiens, UniProt Q13547); test: Inhibition of human HDAC1
Sequence of Histone deacetylase 1 (Q13547 whole entry): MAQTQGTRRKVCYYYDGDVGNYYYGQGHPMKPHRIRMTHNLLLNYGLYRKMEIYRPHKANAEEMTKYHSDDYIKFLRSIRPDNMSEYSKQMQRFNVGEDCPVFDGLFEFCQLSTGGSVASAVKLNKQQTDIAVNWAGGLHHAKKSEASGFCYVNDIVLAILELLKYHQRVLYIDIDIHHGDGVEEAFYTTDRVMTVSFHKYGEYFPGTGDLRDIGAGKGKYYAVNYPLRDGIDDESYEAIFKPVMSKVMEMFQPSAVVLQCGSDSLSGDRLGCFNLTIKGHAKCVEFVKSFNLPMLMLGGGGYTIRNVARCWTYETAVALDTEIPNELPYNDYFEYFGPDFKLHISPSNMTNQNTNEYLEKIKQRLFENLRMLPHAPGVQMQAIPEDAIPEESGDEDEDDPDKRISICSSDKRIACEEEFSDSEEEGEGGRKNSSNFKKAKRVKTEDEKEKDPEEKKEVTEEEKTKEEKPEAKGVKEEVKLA

Astrocyte = test: Cytotoxicity against primary astrocyte cells (unknown origin) assessed as reduction in cell growth at 3 uM measured after 3 days by MTT assay; type: toxicity, cell-based; details: 72 h, time 3 day
[2] = target: T1, Protein deacetylase HDAC6 (Homo sapiens, UniProt Q9UBN7); test: Inhibition of human HDAC6
T1 sequence (Q9UBN7 whole entry): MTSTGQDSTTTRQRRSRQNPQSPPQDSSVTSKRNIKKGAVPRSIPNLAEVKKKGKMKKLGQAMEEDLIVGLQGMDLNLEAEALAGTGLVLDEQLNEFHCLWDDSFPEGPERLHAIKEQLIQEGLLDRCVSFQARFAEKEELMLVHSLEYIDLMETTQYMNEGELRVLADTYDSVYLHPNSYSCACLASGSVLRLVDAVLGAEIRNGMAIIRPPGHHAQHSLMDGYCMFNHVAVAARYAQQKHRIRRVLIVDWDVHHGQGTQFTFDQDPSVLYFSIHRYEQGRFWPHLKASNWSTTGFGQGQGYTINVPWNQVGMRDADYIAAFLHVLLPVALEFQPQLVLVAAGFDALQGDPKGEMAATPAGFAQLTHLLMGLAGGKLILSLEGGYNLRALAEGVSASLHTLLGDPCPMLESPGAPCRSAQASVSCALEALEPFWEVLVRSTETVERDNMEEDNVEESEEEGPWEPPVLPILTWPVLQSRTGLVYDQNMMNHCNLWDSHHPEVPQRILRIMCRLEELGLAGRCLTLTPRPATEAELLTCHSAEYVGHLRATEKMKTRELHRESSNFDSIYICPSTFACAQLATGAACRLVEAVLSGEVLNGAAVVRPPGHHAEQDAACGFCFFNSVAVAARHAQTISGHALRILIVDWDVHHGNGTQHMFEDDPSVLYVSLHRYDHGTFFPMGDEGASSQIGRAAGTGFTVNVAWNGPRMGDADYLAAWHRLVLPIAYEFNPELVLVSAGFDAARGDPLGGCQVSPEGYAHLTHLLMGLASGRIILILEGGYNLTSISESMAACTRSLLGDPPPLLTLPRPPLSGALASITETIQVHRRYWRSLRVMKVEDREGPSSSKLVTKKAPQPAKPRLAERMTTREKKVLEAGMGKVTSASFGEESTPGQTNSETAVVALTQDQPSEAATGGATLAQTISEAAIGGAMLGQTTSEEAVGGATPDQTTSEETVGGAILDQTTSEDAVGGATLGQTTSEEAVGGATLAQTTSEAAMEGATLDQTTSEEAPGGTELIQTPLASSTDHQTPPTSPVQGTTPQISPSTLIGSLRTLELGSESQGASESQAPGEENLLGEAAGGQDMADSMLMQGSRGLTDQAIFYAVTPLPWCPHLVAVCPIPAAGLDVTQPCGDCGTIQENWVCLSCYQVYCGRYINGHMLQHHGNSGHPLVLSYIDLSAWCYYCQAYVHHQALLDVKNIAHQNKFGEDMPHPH

U-87 MG [3] = test: cells; type: functional, cell-based, U-87MG ATCC; details: Homo sapiens
GBM [4] = test: Antitumor activity against Temozolomide-resistant patient derived GBM cells assessed as reduction in cell growth measured after 3 uM measured after 3 days by MTT assay; type: functional, cell-based; details: Homo sapiens, time 3.0 day
Histone deacetylase 8 = target: T2, Histone deacetylase 8 (Homo sapiens, UniProt Q9BY41); test: Inhibition of human HDAC8
T2 sequence (Q9BY41 whole entry): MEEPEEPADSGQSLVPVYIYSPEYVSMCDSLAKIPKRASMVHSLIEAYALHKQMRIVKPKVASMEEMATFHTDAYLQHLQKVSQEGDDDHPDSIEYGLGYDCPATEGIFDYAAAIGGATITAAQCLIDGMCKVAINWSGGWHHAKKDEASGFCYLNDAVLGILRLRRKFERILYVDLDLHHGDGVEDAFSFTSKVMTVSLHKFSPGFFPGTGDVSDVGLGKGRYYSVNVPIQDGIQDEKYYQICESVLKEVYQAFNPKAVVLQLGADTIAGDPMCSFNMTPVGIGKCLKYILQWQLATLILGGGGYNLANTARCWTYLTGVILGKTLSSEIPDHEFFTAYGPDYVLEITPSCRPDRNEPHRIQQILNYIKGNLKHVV

A 172 [5] = test: Downregulation of Spl expression in human A-172 cells at 1 to 10 uM measured after 16 hrs by Western blotting analysis; type: functional, cell-based; details: dose 1-10 µM
A 172 [6] = test: Induction of cell cycle arrest in human A-172 cells assessed as decrease in accumulation of cells at S phase at 10 uM measured after 24 hrs by propidium iodide staining based flow cytometry analysis; type: functional
A 172 [7] = test: Downregulation of PCNA expression in human A-172 cells at 1 to 10 uM measured after 16 hrs by Western blotting analysis; type: functional, cell-based; details: dose 1-10 µM
A 172 [8] = test: Induction of cell cycle arrest in human A-172 cells assessed as decrease in accumulation of cells at G0/G1 phase at 10 uM measured after 24 hrs by propidium iodide staining based flow cytometry analysis; type: functional
A 172 [9] = test: […] caspase-3 expression in human A-172 cells at 1 to 10 uM measured after 16 hrs by Western blotting analysis; type: functional, cell-based; details: dose 1-10 µM
GBM [10] = test: Inhibition of colony formation in Temozolomide-resistant patient derived pt 3 GBM cells at 10 uM measured after 3 days by crystal violet staining based analysis; type: functional, cell-based; details: Homo sapiens, time 3.0 day
Glioblastoma stem cell [11] = test: Antiproliferative activity against Temozolomide-resistant patient derived pt 5 Glioblastoma stem cell sphere assessed as reduction in cell viability at 30 uM measure after 3 days by MTT assay; type: functional, cell-based; details: Homo sapiens, time 3.0 day
A 172 [12] = test: Upregulation of acetylated H3 k9/k14 expression in human A-172 cells at 1 to 10 uM measured after 8 to 24 hrs by Western blotting analysis; type: functional, cell-based; details: dose 1-10 µM, time 8-24 hrs
Glioblastoma stem cell [13] = test: Antiproliferative activity against Temozolomide-resistant patient derived pt 3 Glioblastoma stem cell sphere assessed as reduction in cell viability at 10 uM measure after 3 days by MTT assay; type: functional, cell-based; details: Homo sapiens, time 3.0 day
A 172 [14] = test: Induction of cell cycle arrest in human A-172 cells assessed as accumulation of cells at subG1 phase at 10 uM measured after 48 hrs by propidium iodide staining based flow cytometry analysis; type: functional
Glioblastoma stem cell [15] = test: Antiproliferative activity against Temozolomide-resistant patient derived pt 5 Glioblastoma stem cell sphere assessed as reduction in cell viability at 10 uM measure after 3 days by MTT assay; type: functional, cell-based; details: Homo sapiens, time 3.0 day
GBM [16] = test: Inhibition of colony formation in Temozolomide-resistant patient derived pt 5 GBM cells at 10 uM measured after 3 days by crystal violet staining based analysis; type: functional, cell-based; details: Homo sapiens, time 3.0 day
A 172 [17] = test: Upregulation of acetylated Sig-1R expression in human A-172 cells by immunoblotting analysis; type: functional, cell-based
A 172 [18] = test: Induction of cell cycle arrest in human A-172 cells assessed as increase in accumulation of cells at G2/M phase at 10 uM measured after 24 hrs by propidium iodide staining based flow cytometry analysis; type: functional
Glioblastoma stem cell [19] = test: Antiproliferative activity against Temozolomide-resistant patient derived pt 3 Glioblastoma stem cell sphere assessed as reduction in cell viability at 30 uM measure after 3 days by MTT assay; type: functional, cell-based; details: Homo sapiens, time 3.0 day
U-87 MG [20] = test: Antitumor activity against Temozolomide-resistant human U-87 MG cells xenografted in orthotopic BALB/c mouse assessed as prolongation of animal survival at 10 mg/kg, ip qod; type: functional, organism-based; details: U-87MG ATCC
A 172 [21] = test: Upregulation of acetylated tubulin expression in human A-172 cells at 1 to 10 uM measured after 8 to 24 hrs by Western blotting analysis; type: functional, cell-based; details: dose 1-10 µM, time 8-24 hrs
GBM [22] = test: Inhibition of colony formation in Temozolomide-resistant patient derived pt 3 GBM cells at 3 to 30 uM measured after 3 days by crystal violet staining based analysis; type: functional, cell-based; details: Homo sapiens, dose 3-30 µM, time 3.0 day
GBM [23] = test: Inhibition of colony formation in Temozolomide-resistant patient derived pt 5 GBM cells at 3 to 30 uM measured after 3 days by crystal violet staining based analysis; type: functional, cell-based; details: Homo sapiens, dose 3-30 µM, time 3.0 day
U-87 MG [24] = test: Cytotoxicity against human U-87 MG cells assessed as reduction in cell growth at 30 uM measured after 3 days by MTT assay; type: functional, U-87MG ATCC; set-up: scale not given: the % may be the effect or the level left; details: time 3 day

Sequence of Histone deacetylase 2 (Q92769 whole entry): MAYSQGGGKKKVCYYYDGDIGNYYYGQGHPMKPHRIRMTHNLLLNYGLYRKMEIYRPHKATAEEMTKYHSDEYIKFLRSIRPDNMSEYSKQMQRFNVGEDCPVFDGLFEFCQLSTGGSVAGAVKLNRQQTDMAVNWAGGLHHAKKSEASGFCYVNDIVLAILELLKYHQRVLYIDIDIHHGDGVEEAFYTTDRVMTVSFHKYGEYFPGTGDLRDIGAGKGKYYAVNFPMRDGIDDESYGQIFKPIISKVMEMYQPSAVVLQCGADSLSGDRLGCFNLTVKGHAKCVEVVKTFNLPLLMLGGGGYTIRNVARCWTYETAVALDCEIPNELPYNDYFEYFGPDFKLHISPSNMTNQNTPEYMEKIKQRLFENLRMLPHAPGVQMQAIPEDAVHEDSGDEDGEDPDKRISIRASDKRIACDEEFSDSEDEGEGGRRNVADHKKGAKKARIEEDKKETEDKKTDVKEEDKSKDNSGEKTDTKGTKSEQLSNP

## COc1cc2c(cc1OC)C(=O)C(CC1CCN(Cc3ccc(NCc4ccc(C(=O)NO)cc4)cc3)CC1)C2 (stereo not given)
Histone deacetylase 2
  inhibition: inactive
U-87 MG [1]
  Activity: 90%
Histone deacetylase 1
  inhibition: inactive
Astrocyte
  Activity: Non-Toxic
[2]
  IC50: 49.6 nM
U-87 MG [3]
  IC50: 6170 nM
GBM [4]
  Activity: Active
Histone deacetylase 8
  IC50: 2150 nM

## COc1cc2c(cc1OC)C(=O)C(CC1CCN(S(=O)(=O)c3cccc(/C=C/C(=O)NO)c3)CC1)C2 (stereo not given)
Histone deacetylase 2
  IC50: 3360 nM
Histone deacetylase 1
  IC50: 1670 nM
[2]
  IC50: 110 nM
U-87 MG [3]
  IC50: 6380 nM
Histone deacetylase 8
  IC50: 1720 nM

## COc1cc2c(cc1OC)C(=O)C(CC1CCN(Cc3ccc(NC(=O)CCCCCCC(=O)NO)cc3)CC1)C2 (stereo not given)
Histone deacetylase 2
  IC50: 710 nM
A 172 [5]
  Activity: Active
A 172 [6]
  Activity: Active
A 172 [7]
  Activity: Active
U-87 MG [1]
  Activity: 90%
Histone deacetylase 1
  IC50: 313 nM
A 172 [8]
  Activity: Active
A 172 [9]
  Activity: Active
GBM [10]
  inhibition: Active
Astrocyte
  Activity: Non-Toxic
Glioblastoma stem cell [11]
  Activity: Active
A 172 [12]
  Activity: Active
Glioblastoma stem cell [13]
  Activity: Active
A 172 [14]
  Activity: Active
[2]
  IC50: 2.7 nM
U-87 MG [3]
  IC50: 5780 nM
Glioblastoma stem cell [15]
  Activity: Active
GBM [4]
  Activity: Active
GBM [16]
  inhibition: Active
A 172 [17]
  Activity: Active
A 172 [18]
  Activity: Active
Glioblastoma stem cell [19]
  Activity: Active
U-87 MG [20]
  Activity: Active
Histone deacetylase 8
  IC50: 842 nM
A 172 [21]
  Activity: Active

## COc1cc2c(cc1OC)C(=O)C(CC1CCN(C(=O)CCCCCCCC(=O)NO)CC1)C2 (stereo not given)
U-87 MG [3]
  IC50: 42800 nM

## COc1cc2c(cc1OC)C(=O)C(CC1CCN(Cc3ccc(/C=C/C(=O)NO)cc3)CC1)C2 (stereo not given)
Histone deacetylase 2
  IC50: 500 nM
U-87 MG [1]
  Activity: 90%
Histone deacetylase 1
  IC50: 2430 nM
Astrocyte
  Activity: Toxic
[2]
  IC50: 239 nM
U-87 MG [3]
  IC50: 1760 nM
GBM [4]
  Activity: Active
Histone deacetylase 8
  IC50: 113 nM

## O=C(CCCCCCC(=O)Nc1ccccc1)NO [VORINOSTAT]
Astrocyte
  Activity: Toxic
GBM [4]
  Activity: Active
A 172 [17]
  Activity: inactive

## COc1cc2c(cc1OC)C(=O)C(CC1CCN(C(=O)CCCCCCC(=O)NO)CC1)C2 (stereo not given)
U-87 MG [3]
  IC50: 8010 nM

## COc1cc2c(cc1OC)C(=O)C(CC1CCN(Cc3cccc(NC(=O)CCCCCCC(=O)NO)c3)CC1)C2 (stereo not given)
Histone deacetylase 2
  IC50: 1410 nM
A 172 [6]
  Activity: Active
U-87 MG [1]
  Activity: 90%
Histone deacetylase 1
  IC50: 611 nM
A 172 [8]
  Activity: Active
Astrocyte
  Activity: Non-Toxic
A 172 [14]
  Activity: Active
[2]
  IC50: 51.5 nM
U-87 MG [3]
  IC50: 4910 nM
GBM [4]
  Activity: Active
A 172 [18]
  Activity: Active
Histone deacetylase 8
  IC50: 1240 nM

## COc1cc2c(cc1OC)C(=O)C(CC1CCN(S(=O)(=O)c3ccc(/C=C/C(=O)NO)cc3)CC1)C2 (stereo not given)
U-87 MG [3]
  IC50: 17000 nM

## COc1cc2c(cc1OC)C(=O)C(CC1CCN(Cc3ccc(C(=O)NO)cc3)CC1)C2 (stereo not given)
U-87 MG [3]
  IC50: 46000 nM

## COc1cc2c(cc1OC)C(=O)C(CC1CCN(C(=O)CCCCCCCCC(=O)NO)CC1)C2 (stereo not given)
U-87 MG [3]
  IC50: 29100 nM

## COc1cc2c(cc1OC)C(=O)C(CC1CCN(Cc3ccccc3)CC1)C2 (stereo not given) [DONEPEZIL]
GBM [22]
  inhibition: inactive
GBM [23]
  inhibition: inactive
Glioblastoma stem cell [11]
  Activity: Active
U-87 MG [24]
  Activity: 50%
U-87 MG [3]
  IC50: 47200 nM
GBM [4]
  Activity: inactive
A 172 [17]
  Activity: inactive
Glioblastoma stem cell [19]
  Activity: Active

## COc1cc2c(cc1OC)C(=O)C(CC1CCN(C(=O)CCCCCC(=O)NO)CC1)C2 (stereo not given)
U-87 MG [3]
  IC50: 43200 nM
